Reference: patent US20160279110A1, “COMPOSITIONS AND METHODS FOR TREATING CANCER” (UNIVERSITY OF ROCHESTER, priority 2015, published 2016)

Legend:
[1] = tested on: UPF1; test: Western blot of UPF1 CP generation in Daudi B lymphoblasts; type: cell-based, human; conditions: 40 ng/mL TNF-α or 2 μg/mL doxorubicin
Method: (§1) FIG. 10b is essentially as in a, but using lysates of HEK293T cells exposed to 1 μM staurosporine. FIG. 10c is essentially as in a, but using lysates of human Daudi B lymphoblasts exposed to 40 ng/mL TNF-α or 2 μg/mL doxorubicin. FIG. 10d is essentially as in a, but using lysates of human Jurkat T cells exposed to 1 μM staurosporine. FIG. 10e is essentially as in a, but using lysates of canine MDCK cells exposed to 2 μM staurosporine. FIG. 10f is essentially as in a, but using lysates of bovine MDBK cells exposed to 2 μM staurosporine. FIG. 10g is essentially as in a, but using lysates of Chinese Hamster Ovary (CHO) cells exposed to 2 μM staurosporine. FIG. 10h is essentially as in a, but using lysates of African green monkey COS-7 cells exposed to 2 μM staurosporine or 2 μg/mL doxorubicin. At least two apoptotic inducers were used for each cell line, and at least two cell lines were tested with each apoptotic inducer.
(§2) Cells were lysed, and protein was isolated using hypotonic buffer that consists of 10 mM Tris-C1, pH 7.4, 10 mM NaCl, 2 mM EDTA, 0.5% Triton X-100, 2 mM benzamidine, 1 mM PMSF, NEM (50 μg/mL), 1× phosphatase inhibitor cocktail (Roche), and 1× protease inhibitor cocktail (Roche; Basel, Switzerland). […] Immunoreactivity was assessed using SuperSignal West Pico or Femto (Pierce Biotechnology; Waltham, Mass.). […]

[2] = tested on: UPF1; test: Western blot of UPF1 CP generation in MDCK cells; type: cell-based, canine; conditions: 2 μM staurosporine
Method: as §1
(§3) Cells were lysed, and protein was isolated using hypotonic buffer that consists of 10 mM Tris-C1, pH 7.4, 10 mM NaCl, 2 mM EDTA, 0.5% Triton X-100, 2 mM benzamidine, 1 mM PMSF, NEM (50 μg/mL), 1× phosphatase inhibitor cocktail (Roche), and 1× protease inhibitor cocktail (Roche; Basel, Switzerland). […] Immunoreactivity was assessed using SuperSignal West Pico or Femto (Pierce Biotechnology; Waltham, Mass.).

[3] = tested on: UPF1; test: Western blot of UPF1 CP generation in COS-7 cells; type: cell-based, African green monkey; conditions: COS-7, 2 μM staurosporine or 2 μg/mL doxorubicin
Method: as §1, §3

[4] = tested on: UPF1; test: Western blot of UPF1 CP generation in CHO cells; type: cell-based, Chinese hamster; conditions: 2 μM staurosporine
Method: as §1, §3

[5] = tested on: UPF1; test: Western blot of UPF1 CP generation in HEK293T cells; type: cell-based, human; conditions: 300 μg/mL CHX or 1 μM staurosporine
Method: as §1, §2

[6] = tested on: UPF1; test: Western blot of UPF1 CP generation in Jurkat T cells; type: cell-based, human; conditions: 1 μM staurosporine
Method: as §1, §2

[7] = tested on: UPF1; test: Western blot of UPF1 CP generation in MDBK cells; type: cell-based, bovine; conditions: 2 μM staurosporine
Method: as §1, §3

[8] = tested on: caspases; test: Caspase inhibitor pre-incubation before CHX, UPF1 CP western blot in HEK293T cells; type: cell-based, human; conditions: inhibitor preincubated 4 h, then CHX 300 μg/ml
Method: FIG. 3b is a diagram of N-terminally FLAG-tagged human UPF1, showing its reactivity with anti(α)-UPF1(1-416). CH, cysteine-t histidine-rich region. […] Blots are representative of two independent experiments.
as §2, with “Switzerland). After 10 minutes of incubation at 4° C., NaCl was added to 150 mM, and lysates were cleared by centrifugation.” for “Switzerland).”

[9] = tested on: UPF1; test: Western blot of UPF1 CP generation in C2C12 myoblasts; type: cell-based, mouse; conditions: C2C12, CHX 100 or 300 μg/ml, ETP 100 μM 5 h pulse
Method: CHX concentrations were 100 or 300 μg ml^−1, and a 5 h pulse of ETP was used at 100 μM. At least two apoptotic inducers were used for each cell line, and at least two cell lines were tested with each apoptotic inducer.
Cells were lysed, and protein was isolated using hypotonic buffer that consists of 10 mM Tris-C1, pH 7.4, 10 mM NaCl, 2 mM EDTA, 0.5% Triton X-100, 2 mM benzamidine, 1 mM PMSF, NEM (50 μg/mL), 1× phosphatase inhibitor cocktail (Roche), and 1× protease inhibitor cocktail (Roche; Basel, Switzerland). After 10 minutes of incubation at 4° C., NaCl was added to 150 mM, and lysates were cleared by centrifugation. […] Immunoreactivity was assessed using SuperSignal West Pico or Femto (Pierce Biotechnology; Waltham, Mass.).

[10] = tested on: UPF1; test: Western blot of UPF1 CP generation in HeLa cells; type: cell-based, human
Method: […] At least two apoptotic inducers were used for each cell line, and at least two cell lines were tested with each apoptotic inducer.
UPF1 CP may result from cleavage of endogenous UPF1 or the transfected construct, but the use of anti-FLAG allows unambiguous assignment of UPF1-FLAG CP as derived from MYC-UPF1-FLAG. α, anti; h, hour(s). […] To serve as molecular weight standards for UPF1 CP, lysates of MCF7 cells transiently expressing a UPF1-FLAG protein encompassing the residues specified were also analyzed. […] The D37 cleavage site encompassing P4-P1 residues is boxed. […] Immunoblots are representative of at least 2 independent experiments.
as §2
Inventories of in vivo apoptotic cleavage events indicate that cleavage specificity in living cells is determined chiefly by an aspartic acid residue at the P1 position; P4-P2 residues contribute far less to specificity in cells than is indicated by in vitro-derived peptide-based substrate profiles. […]

[11] = biological target: T1, MYC-UPF1-FLAG WT, Q92900
T1 chain: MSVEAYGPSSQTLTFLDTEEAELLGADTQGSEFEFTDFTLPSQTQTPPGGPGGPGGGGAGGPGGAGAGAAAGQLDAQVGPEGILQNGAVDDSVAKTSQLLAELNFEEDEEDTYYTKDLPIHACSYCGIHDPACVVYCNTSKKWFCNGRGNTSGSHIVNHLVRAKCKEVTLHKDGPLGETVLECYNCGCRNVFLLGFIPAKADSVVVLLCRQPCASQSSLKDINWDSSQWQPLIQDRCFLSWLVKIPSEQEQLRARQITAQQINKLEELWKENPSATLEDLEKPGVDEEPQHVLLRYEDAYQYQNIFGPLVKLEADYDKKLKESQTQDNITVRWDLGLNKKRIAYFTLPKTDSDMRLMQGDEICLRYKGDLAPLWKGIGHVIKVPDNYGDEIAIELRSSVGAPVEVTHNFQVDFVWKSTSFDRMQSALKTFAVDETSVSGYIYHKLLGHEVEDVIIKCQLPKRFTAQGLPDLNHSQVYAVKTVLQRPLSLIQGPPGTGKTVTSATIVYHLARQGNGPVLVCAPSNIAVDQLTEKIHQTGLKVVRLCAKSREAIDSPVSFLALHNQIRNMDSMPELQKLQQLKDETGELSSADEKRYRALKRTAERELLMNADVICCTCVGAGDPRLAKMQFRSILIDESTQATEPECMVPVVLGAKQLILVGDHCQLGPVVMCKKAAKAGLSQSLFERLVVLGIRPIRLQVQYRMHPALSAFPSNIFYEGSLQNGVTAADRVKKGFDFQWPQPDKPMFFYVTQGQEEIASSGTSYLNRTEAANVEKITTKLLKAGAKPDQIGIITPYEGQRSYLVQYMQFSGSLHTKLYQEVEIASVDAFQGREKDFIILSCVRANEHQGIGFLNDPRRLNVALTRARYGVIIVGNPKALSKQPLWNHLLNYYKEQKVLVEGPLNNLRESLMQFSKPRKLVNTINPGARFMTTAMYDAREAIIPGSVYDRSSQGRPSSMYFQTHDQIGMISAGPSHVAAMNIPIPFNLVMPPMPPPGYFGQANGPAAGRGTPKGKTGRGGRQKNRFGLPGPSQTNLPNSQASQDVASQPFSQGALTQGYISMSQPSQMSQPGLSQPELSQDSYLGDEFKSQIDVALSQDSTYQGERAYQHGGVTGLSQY

## TNF-α
[1]
  UPF1 CP generation: led to generation of the UPF1 CP prior to maximal PARP cleavage

## CN[C@@H]1C[C@H]2O[C@@](C)([C@@H]1OC)n1c3ccccc3c3c4c(c5c6ccccc6n2c5c31)C(=O)NC4 [staurosporine]
[2]
  UPF1 CP generation: led to UPF1 CP production
[3]
  UPF1 CP generation: yielded a UPF1 CP
[4]
  UPF1 CP generation: led to UPF1 CP production
[5]
  UPF1 CP generation: yielded two UPF1 CPs, prior to full cleavage of CASP9 and CASP3
[6]
  UPF1 CP generation: yielded a UPF1 CP prior to maximal cleavage of CASP3 or PARP
[7]
  UPF1 CP generation: led to UPF1 CP production

## Z-VAD-fmk
[8]
  level of UPF1 CP after caspase inhibitor: nearly undetectable

## COc1cc([C@@H]2c3cc4c(cc3[C@@H](O[C@@H]3O[C@@H]5CO[C@@H](C)O[C@H]5[C@H](O)[C@H]3O)[C@H]3COC(=O)[C@H]23)OCO4)cc(OC)c1O [ETP, etoposide]
[9]
  UPF1 CP generation: generated a UPF1 CP prior to maximal CASP3 cleavage
[10]; HeLa, ETP 44 μM 6 h
  UPF1 CP generation: induced generation of a UPF1 CP before full induction of cleaved initiator caspase 9 (CASP9) and cleaved executioner CASP3

## C[C@@H]1C[C@@H]([C@H](O)CC2CC(=O)NC(=O)C2)C(=O)[C@@H](C)C1 [CHX, cycloheximide]
[5]
  UPF1 CP generation: Generation of the UPF1 CP prior to full CASP9 and CASP3 cleavage
[9]
  UPF1 CP generation: generated a UPF1 CP prior to maximal CASP3 cleavage
[10]; HeLa expressing UPF1 WT, D27N or D75N, 300 μg/mL CHX, anti-FLAG immunoblot
  UPF1 CP level relative to uncleaved UPF1: about one-third the level of uncleaved UPF1

## Z-DEVD-fmk
[8]
  level of UPF1 CP after caspase inhibitor: nearly undetectable

B1: Active recombinant Caspase 3 (protein)
chain: SGISLDNSYKMDYPEMGLCIIINNKNFHKSTGMTSRSGTDVDAANLRETFRNLKYEVRNKNDLTREEIVELMRDVSKEDHSKRSSFVCVLLSHGEEGIIFGTNGPVDLKKITNFFRGDRCRSLTGKPKLFIIQACRGTELDCGIETDSGVDDDMACHKIPVEADFLYAYSTAPGYYSWRNSKDGSWFIQSLCAMLKQYADKLEFMHILTRVNRKVATEFESFSFDATFHAKKQIPCIVSMLTKELYFYH
[11]
  in vitro caspase cleavage, western blot: CASP3 and CASP7 cleaved MYC-UPF1-FLAG WT

B2: Active recombinant Caspase 7 (protein)
chain: AKPDRSSFVPSLFSKKKKNVTMRSIKTTRDRVPTYQYNMNFEKLGKCIIINNKNFDKVTGMGVRNGTDKDAEALFKCFRSLGFDVIVYNDCSCAKMQDLLKKASEEDHTNAACFACILLSHGEENVIYGKDGVTPIKDLTAHFRGDRCKTLLEKPKLFFIQACRGTELDDGIQADSGPINDTDANPRYKIPVEADFLFAYSTVPGYYSWRSPGRGSWFVQALCSILEEHGKDLEIMQILTRVNDRVARHFESQSDDPHFHEKKQIPCVVSMLTKELYFSQ
[11]
  in vitro caspase cleavage, western blot: CASP3 and CASP7 cleaved MYC-UPF1-FLAG WT
